Experimental data: ChEMBL document CHEMBL5465560, “Selectivity Literature for EUbOPEN Chemogenomic Library” (2024)

Experiments:
[1] = biological target: Cyclin-dependent kinase 3 (Homo sapiens) (UniProt Q00526); assay: Selectivity interaction (KinomeScan (DiscoverX)) EUB0000229b CDK3; settings: at 10 µM
[2] = biological target: Tyrosine-protein kinase FRK (Homo sapiens) (UniProt P42685); assay: Selectivity interaction (KinomeScan (DiscoverX)) EUB0000229b FRK; settings: at 10 µM
[3] = biological target: T1, Mitogen-activated protein kinase kinase kinase 6 (Homo sapiens) (UniProt O95382); assay: Selectivity interaction (ActivX KiNativ screen (kinase selectivity in THP-1 cell lysates)) EUB0000639a MAP3K6; format: subcellular; settings: lysate, at 0.04 µM
T1 sequence (whole entry): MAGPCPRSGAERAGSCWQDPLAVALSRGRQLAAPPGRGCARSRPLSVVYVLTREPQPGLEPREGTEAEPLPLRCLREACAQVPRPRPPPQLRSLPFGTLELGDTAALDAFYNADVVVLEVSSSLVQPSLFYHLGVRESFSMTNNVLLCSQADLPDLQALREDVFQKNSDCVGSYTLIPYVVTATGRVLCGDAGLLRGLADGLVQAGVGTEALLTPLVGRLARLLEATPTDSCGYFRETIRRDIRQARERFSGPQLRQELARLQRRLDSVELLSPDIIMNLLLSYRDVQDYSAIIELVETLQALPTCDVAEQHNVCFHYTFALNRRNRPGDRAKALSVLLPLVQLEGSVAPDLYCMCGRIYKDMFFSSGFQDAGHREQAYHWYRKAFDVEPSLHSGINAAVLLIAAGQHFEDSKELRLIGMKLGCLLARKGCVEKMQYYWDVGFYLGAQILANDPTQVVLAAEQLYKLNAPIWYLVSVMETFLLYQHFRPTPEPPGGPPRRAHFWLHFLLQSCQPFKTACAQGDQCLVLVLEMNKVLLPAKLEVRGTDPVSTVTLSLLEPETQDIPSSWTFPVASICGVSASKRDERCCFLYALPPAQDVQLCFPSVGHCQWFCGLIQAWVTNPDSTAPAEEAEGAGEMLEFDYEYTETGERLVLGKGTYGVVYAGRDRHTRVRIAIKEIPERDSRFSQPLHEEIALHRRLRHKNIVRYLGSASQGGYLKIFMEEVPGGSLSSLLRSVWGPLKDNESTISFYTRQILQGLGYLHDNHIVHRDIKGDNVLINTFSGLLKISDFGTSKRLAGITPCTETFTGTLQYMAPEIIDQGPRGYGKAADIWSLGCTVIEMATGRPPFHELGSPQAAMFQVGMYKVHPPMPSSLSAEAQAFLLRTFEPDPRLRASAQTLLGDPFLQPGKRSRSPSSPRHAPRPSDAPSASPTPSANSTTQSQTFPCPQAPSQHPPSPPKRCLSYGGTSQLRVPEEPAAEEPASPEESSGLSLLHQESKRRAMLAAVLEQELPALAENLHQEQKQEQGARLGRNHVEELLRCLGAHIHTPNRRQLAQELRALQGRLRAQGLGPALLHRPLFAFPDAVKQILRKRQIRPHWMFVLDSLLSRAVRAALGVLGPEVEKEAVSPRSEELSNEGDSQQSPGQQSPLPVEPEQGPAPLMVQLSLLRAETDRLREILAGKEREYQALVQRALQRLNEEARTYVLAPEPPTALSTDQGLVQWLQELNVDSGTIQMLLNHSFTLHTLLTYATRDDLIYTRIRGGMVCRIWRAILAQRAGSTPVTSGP

[4] = biological target: T2, Cytoplasmic tyrosine-protein kinase BMX (Homo sapiens) (UniProt P51813); assay: Selectivity interaction (KinomeScan (DiscoverX)) EUB0000595a BMX; settings: at 10 µM
T2 sequence (whole entry): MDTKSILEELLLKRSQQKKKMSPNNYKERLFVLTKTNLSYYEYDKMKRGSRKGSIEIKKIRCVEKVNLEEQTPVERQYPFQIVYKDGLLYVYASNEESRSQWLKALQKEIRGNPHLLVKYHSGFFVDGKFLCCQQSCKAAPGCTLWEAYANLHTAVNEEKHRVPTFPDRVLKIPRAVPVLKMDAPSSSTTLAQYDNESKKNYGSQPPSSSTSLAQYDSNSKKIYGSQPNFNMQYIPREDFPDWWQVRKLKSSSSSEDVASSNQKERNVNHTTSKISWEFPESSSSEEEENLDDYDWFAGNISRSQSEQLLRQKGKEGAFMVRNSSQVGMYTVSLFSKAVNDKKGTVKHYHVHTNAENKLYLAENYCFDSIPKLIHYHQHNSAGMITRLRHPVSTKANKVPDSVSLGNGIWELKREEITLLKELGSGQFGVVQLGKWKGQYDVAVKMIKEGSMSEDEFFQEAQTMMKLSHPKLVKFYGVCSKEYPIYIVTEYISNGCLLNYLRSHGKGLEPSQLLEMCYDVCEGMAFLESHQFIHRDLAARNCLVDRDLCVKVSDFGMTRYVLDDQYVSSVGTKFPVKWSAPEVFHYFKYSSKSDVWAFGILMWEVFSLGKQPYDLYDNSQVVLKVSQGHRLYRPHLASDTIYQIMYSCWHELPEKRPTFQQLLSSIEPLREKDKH

[5] = biological target: Ribosomal protein S6 kinase beta-1 (Homo sapiens, UniProt P23443); assay: Selectivity interaction (Kinase panel (Z-LYTE Assay)) EUB0001632a RPS6KB1; settings: at 10 µM
[6] = biological target: T3, Serine/threonine-protein kinase NLK (Homo sapiens) (UniProt Q9UBE8); assay: Selectivity interaction (ProQinase) EUB0000171b NLK
T3 sequence (whole entry): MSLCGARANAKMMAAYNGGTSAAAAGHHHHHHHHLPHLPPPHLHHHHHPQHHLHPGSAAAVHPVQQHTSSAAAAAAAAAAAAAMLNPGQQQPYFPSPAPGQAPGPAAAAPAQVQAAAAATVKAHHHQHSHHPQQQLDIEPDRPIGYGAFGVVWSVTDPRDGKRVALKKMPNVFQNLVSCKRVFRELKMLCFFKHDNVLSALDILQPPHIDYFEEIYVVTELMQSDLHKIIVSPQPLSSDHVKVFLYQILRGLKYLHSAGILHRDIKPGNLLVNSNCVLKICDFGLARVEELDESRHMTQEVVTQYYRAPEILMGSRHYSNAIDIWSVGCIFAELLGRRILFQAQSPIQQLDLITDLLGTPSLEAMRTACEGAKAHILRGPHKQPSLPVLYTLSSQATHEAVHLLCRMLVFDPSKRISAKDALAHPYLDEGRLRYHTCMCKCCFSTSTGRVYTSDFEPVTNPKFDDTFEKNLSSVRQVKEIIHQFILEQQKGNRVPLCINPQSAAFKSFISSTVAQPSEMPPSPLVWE

Chain of Ribosomal protein S6 kinase beta-1 (P23443 whole entry, looked up): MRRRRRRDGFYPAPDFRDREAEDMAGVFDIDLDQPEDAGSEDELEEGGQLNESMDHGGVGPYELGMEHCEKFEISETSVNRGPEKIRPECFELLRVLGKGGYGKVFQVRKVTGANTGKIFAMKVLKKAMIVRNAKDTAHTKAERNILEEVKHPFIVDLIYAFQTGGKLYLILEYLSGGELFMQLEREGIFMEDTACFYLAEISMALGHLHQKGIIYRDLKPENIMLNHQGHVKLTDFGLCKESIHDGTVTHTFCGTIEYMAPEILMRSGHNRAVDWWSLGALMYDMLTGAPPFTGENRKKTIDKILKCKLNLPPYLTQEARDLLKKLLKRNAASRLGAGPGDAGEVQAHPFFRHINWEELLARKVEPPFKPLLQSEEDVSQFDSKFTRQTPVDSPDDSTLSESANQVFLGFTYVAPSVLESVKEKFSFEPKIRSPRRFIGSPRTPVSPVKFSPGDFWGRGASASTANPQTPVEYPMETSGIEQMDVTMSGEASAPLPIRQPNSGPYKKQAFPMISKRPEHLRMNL
Chain of Tyrosine-protein kinase FRK (Homo sapiens) (P42685 whole entry): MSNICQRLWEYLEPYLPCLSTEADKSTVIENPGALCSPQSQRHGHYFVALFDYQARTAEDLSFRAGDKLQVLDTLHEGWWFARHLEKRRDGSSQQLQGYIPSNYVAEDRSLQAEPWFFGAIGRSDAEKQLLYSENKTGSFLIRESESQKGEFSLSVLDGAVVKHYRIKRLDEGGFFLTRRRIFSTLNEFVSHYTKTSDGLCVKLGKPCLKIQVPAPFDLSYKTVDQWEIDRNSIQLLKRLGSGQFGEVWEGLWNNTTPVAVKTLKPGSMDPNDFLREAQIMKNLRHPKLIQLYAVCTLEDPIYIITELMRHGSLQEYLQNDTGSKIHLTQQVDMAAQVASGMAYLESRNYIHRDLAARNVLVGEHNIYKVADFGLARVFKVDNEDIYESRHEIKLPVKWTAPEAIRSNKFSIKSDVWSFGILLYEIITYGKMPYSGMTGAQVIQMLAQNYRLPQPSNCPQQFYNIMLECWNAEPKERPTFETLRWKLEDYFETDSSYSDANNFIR
Chain of Cyclin-dependent kinase 3 (Homo sapiens) (Q00526 whole entry, looked up): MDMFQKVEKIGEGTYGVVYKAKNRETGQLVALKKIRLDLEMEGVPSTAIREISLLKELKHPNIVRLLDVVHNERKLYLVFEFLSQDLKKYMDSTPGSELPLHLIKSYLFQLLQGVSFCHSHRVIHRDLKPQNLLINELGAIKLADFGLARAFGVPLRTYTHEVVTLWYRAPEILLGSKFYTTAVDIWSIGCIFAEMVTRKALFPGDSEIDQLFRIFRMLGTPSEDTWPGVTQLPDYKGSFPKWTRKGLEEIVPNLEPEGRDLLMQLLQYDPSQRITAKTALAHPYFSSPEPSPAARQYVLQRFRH

SMILES: COc1cc(N(C)c2ccnc3ccc(C(F)(F)F)cc23)cc(OC)c1OC
- % binding [1]: 100%
- % binding [2]: 95%

SMILES: CC[C@@H]1[C@H](F)C(=O)N[C@@H]1COc1nccc2cc(C(N)=O)c(OC)cc12 [ZIMLOVISERTIB]
- % of inhibition [3]: 3.6%

SMILES: COCC(=O)NC/C=C/c1ccc2ncnc(Nc3ccc(Oc4ccc(C)nc4)c(C)c3)c2c1 [CP-724714]
- % of control [4]: 73%

SMILES: Cn1cc(-n2cnc3c(NCc4nc5cc(Cl)c(Cl)cc5[nH]4)nc(N4CCOCC4)nc32)cn1
- % of control [5]: 2.46%

SMILES: C=CC(=O)Nc1cccc(C(=O)Nc2ccc(Nc3cc(-c4[nH]c(SC)nc4C)ccn3)cc2)c1
- % of control ([6]; at 1 µM): 86%
- % of control ([6]; at 5 µM): 37%
